# Laboratory results: patent publication US20050065195A1, “Oxadiazolyl-biphenylcarboxamides and their use as p38 kinase inhibitors” (priority 2001, published 2005)
row,Compound,melting point [°C]
1,"COc1ccc(C(=O)Nc2ccc(-c3ccc(C(C)=O)cc3)cc2)cc1CCN(C)C [1(b), N-(4′-Acetyl[1,1′-biphenyl]-4-yl)-3-[2-(dimethylamino)ethyl]-4-methoxybenzamide]",236 to 240
2,COc1ccc(C(=O)Nc2ccc(-c3ccccc3C(C)O)cc2)cc1CCCN(C)C.Cl (stereo not shown),224 to 227
3,"CCc1ccc(-c2ccc(NC(=O)c3ccc(OC)c(CCCN(C)C)c3)cc2)cc1 [Example 6, 3-[3-(Dimethylamino)propyl]-N-(4′-ethyl[1,1′-biphenyl]-4-yl)-4-methoxybenzamide]",200 to 202
4,"COc1ccc(C(=O)Nc2ccc(-c3ccc(CO)cc3C)c(C)c2)cc1CCCN(C)C [Example 41, 3-[3-(Dimethylamino)propyl]-N-[4′-(hydroxymethyl)-2,2′-dimethyl[1,1′-biphenyl]-4-yl]-4-methoxybenzamide]",68 to 70

# Second part, the molecule after the results:
row,melting point [°C],Compound
1,166 to 167,"COc1ccc(C(=O)Nc2ccc(-c3ccc(-c4nc(C)no4)cc3C)cc2)cc1CCCN(C)C [Example 71, 3-[3-(Dimethylamino)propyl]-4-methoxy-N-[2′-methyl-4′-(3-methyl-1,2,4-oxadiazol-5-yl)[1,1′-biphenyl]-4-yl]benzamide]"
2,171 to 173,"COc1ccc(C(=O)Nc2ccc(-c3ccc(CO)c(O)c3)cc2)cc1CCCN(C)C [Example 20(b), 3-[3-(Dimethylamino)propyl]-N-[3′-hydroxy-4′-(hydroxymethyl)[1,1′-biphenyl]-4-yl]-4-methoxybenzamide]"
3,264 to 266,COc1ccc(C(=O)Nc2ccc(-c3ccc(C(C)=O)cc3)c(C)c2)cc1CCCN(C)C.Cl
